Measurements from patent US12209142B2, “SARS-CoV-2 epitope-targeted peptide immunostimulants” (Institute for Systems Biology, priority 2020, dated 2025).
Entries after “also recorded” stand apart in the source; their conditions may differ. Where a SMILES comes first, the peptide text is derived from it. Bridges are numbered along the chain shown (N, C = ends). Triazole bridges read from a SMILES are 1,4-linked. [ ]: non-standard residue; d: D form. The star is where a group is joined. Biotin = O=C1N[C@H]2[C@H](CS[C@H]2CCCCC(=O)*)N1; Lys(N3) = [N-]=[N+]=NCCCC[C@H](N)C(=O)O; PEG5 = NCCOCCOCCOCCOCCOCCC(=O)O; Pra = C#CC[C@H](N)C(=O)O

What was measured:
[1] = system: Salmonella typhimurium (S. typhimurium) cells; assay: Whole-cell ELISA of biotinylated PCC binding; details: biotinylated PCC at 5 μM
Experimental: Whole-cell ELISAs. Detection of the binding of biotinylated PCCs to bacterial surface was performed as follows. 108 bacteria from a culture grown overnight were used for each test. Bacteria were incubated with PBS containing 1% BSA (PBS-BSA) for 1 h at 37° C., washed once with PBS, and then incubated with 5 μM of the biotinylated PCC in PBS-BSA for 1 h at 37° C. After washing thrice with PBS to remove unbound PCCs, bacteria were incubated with Streptavidin-HRP (1:1000) for 1 h at 37° C. Bacteria were washed thoroughly and the TMB reagent was added until visible coloration was observed. The reaction was quenched using 2N H2SO4 and absorbance was measured at 450 nm.

[2] = system: MrkA-expressing K. pneumoniae cells; assay: Whole-cell ELISA of biotinylated PCC binding
[3] = system: K. pneumoniae cells (strain BAA 1705); assay: Gentamicin protection assay: phagocytosis and opsonophagocytic killing (OPK) by macrophages; format: cell-based, Klebsiella pneumoniae
How it was run: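 Strain BAA 1705 treated with DNP-conjugated EPIs (5 μM), opsonized with anti-DNP antibody, then given to murine bone-marrow macrophages at MOI 50 for 0.5 h at 37° C. Extracellular bacteria killed with gentamicin (100 μg/ml). Macrophages lysed at 1 h (phagocytosis) and 24 h (OPK); intracellular CFU counted on LB agar, in triplicate.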

[4] = strain BAA 1705, PCC 5 μM or lower

CC(C)C[C@@H]1NC(=O)[C@@H](NC(=O)CCOCCOCCOCCOCCOCCNC(=O)CCCC[C@@H]2SC[C@@H]3NC(=O)N[C@@H]32)Cc2cn(nn2)CCCC[C@@H](C(N)=O)NC(=O)[C@H](Cc2ccccc2)NC(=O)[C@H](Cc2ccccc2)NC(=O)[C@H](Cc2ccccc2)NC(=O)[C@H](CC(C)C)NC1=O [cy(LLFFF)] ({Biotin-PEG5}-[Pra]LLFFF[Lys(N3)]-NH2; triazole 1-7; N-terminus and C-terminus assumed)
whole-cell ELISA signal, S. typhimurium [1]: small absorbances; also recorded: only weak signals
whole-cell ELISA signal, MrkA-knockout KPPR1 ([2]; MrkA/B/C knockout KPPR1): ELISA intensities comparable to baseline
whole-cell ELISA signal, K. pneumoniae BAA 1705 and BAA 2146 ([2]; biotinylated PCC at 5 μM): high absorbance; also recorded: strong signal; also recorded: binds two strains of MrkA-expressing K. pneumoniae cells with excellent selectivity versus E. coli and S. typhimurium
whole-cell ELISA signal at high PCC concentration, LB or G-CAA ([2]; strain BAA 1705, 50 μM PCC): strong and comparable ELISA signals
whole-cell ELISA 450 nm absorbance, cells cultured in G-CAA (high MrkA) [2, 4]: strong absorbances
whole-cell ELISA 450 nm absorbance, cells cultured in LB (low MrkA) [2, 4]: near-baseline absorbances
whole-cell ELISA signal, wild type KPPR1 ([2]; wild type KPPR1 (ATCC 43816), G-CAA media, 5 μM down to 5 nM): strong signals; also recorded: binds wild type MrkA-expressing KPPR1 cells
CFU at 6 hrs, DNP-conjugated EPI and anti-DNP antibody ([3]; macrophages harvested at 6 hrs): more than 80,000 CFU
cell counts at 6 hrs, DNP-conjugated EPI without antibody ([3]; macrophages harvested at 6 hrs): ~35,000
colony counts at 24 h (OPK) ([3]; macrophages harvested at 24 h): little to no cell counts
